# Literature values in patent US6358940B1, “Modified 2-Alkoxyestradiol derivatives with prolonged pharmacological activity” (priority 1999, dated 2002).
# Assays:
# tubulin polymerization = conditions: antitubulin activity and cytotoxicity
# neovascularization = conditions: in vivo
# [1] = test system: human non-small cell lung cancer line
smiles,measurement,setting,value
CCOc1cc2c(cc1O)CC[C@@H]1[C@@H]2CC[C@]2(C)[C@@H](O)CC[C@@H]12 [2-Ethoxyestradiol],potency relative to 2-methoxyestradiol,tubulin polymerization,substantially more potent than 2-methoxyestradiol
CC=Cc1cc2c(cc1O)CCC1C2CCC2(C)C(O)CCC12 (stereo not drawn) [2-((E)-l-propenyl)-estradiol],potency relative to 2-methoxyestradiol,tubulin polymerization,substantially more potent than 2-methoxyestradiol
COc1cc2c(cc1O)CC[C@@H]1[C@@H]2CC[C@]2(C)[C@@H](O)CC[C@@H]12 [2-methoxyestradiol],inhibition of neovascularization,neovascularization; mice,potent inhibitor of neovascularization
same,signs of toxicity,neovascularization; mouse,No signs of toxicity
same,apoptotic cell death,[1]; after drug treatment,Significant apoptotic cell death
same,wild-type p53 levels,"[1]; human non-small cell lung cancer line, with accumulation of p21WAF1/CIP1",increases wild-type p53 levels
same,cytotoxicity,cancer cell cultures,cytotoxic
same,inhibitory effect on angiogenesis,angiogenesis,strong inhibitory effect on angiogenesis
